Reference: PubChem BioAssay (NCI)
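Method: 48-hour compound exposure of cells in 96-well plates, five concentrations, linear interpolation of endpoints. TGI denotes the concentration required for complete inhibition of growth.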

How the values were obtained:
Experiment in all cases: DTP human tumour cell line panel, 48 h
786-0 renal = tested on: 786-0 renal
A498 renal = tested on: A498 renal
A549 NSCLC = tested on: A549 NSCLC
ACHN renal = tested on: ACHN renal
CAKI-1 renal = tested on: CAKI-1 renal
CCRF-CEM leukemia = tested on: CCRF-CEM leukemia
COLO 205 colon = tested on: COLO 205 colon
DU-145 prostate = tested on: DU-145 prostate
EKVX NSCLC = tested on: EKVX NSCLC
HCC-2998 colon = tested on: HCC-2998 colon
HCT-116 colon = tested on: HCT-116 colon
HCT-15 colon = tested on: HCT-15 colon
HL-60(TB) leukemia = tested on: HL-60(TB) leukemia
HOP-62 NSCLC = tested on: HOP-62 NSCLC
HS 578T breast = tested on: HS 578T breast
HT29 colon = tested on: HT29 colon
IGROV1 ovarian = tested on: IGROV1 ovarian
K-562 leukemia = tested on: K-562 leukemia
KM12 colon = tested on: KM12 colon
M14 melanoma = tested on: M14 melanoma
MALME-3M melanoma = tested on: MALME-3M melanoma
MCF7 breast = tested on: MCF7 breast
MDA-MB-231 breast = tested on: MDA-MB-231 breast
MDA-MB-435 = tested on: MDA-MB-435
MDA-N = tested on: MDA-N
MOLT-4 leukemia = tested on: MOLT-4 leukemia
NCI-H226 lung = tested on: NCI-H226 lung
NCI-H23 lung = tested on: NCI-H23 lung
NCI-H460 lung = tested on: NCI-H460 lung
NCI/ADR-RES ovarian = tested on: NCI/ADR-RES ovarian
OVCAR-4 ovarian = tested on: OVCAR-4 ovarian
OVCAR-5 ovarian = tested on: OVCAR-5 ovarian
OVCAR-8 ovarian = tested on: OVCAR-8 ovarian
PC-3 prostate = tested on: PC-3 prostate
RPMI-8226 leukemia = tested on: RPMI-8226 leukemia
SF-268 CNS = tested on: SF-268 CNS
SF-295 CNS = tested on: SF-295 CNS
SF-539 CNS = tested on: SF-539 CNS
SK-MEL-2 melanoma = tested on: SK-MEL-2 melanoma
SK-MEL-28 melanoma = tested on: SK-MEL-28 melanoma
SK-MEL-5 melanoma = tested on: SK-MEL-5 melanoma
SK-OV-3 ovarian = tested on: SK-OV-3 ovarian
SN12C renal = tested on: SN12C renal
SNB-19 CNS = tested on: SNB-19 CNS
SNB-75 CNS = tested on: SNB-75 CNS
SR leukemia = tested on: SR leukemia
SW-620 colon = tested on: SW-620 colon
T-47D breast = tested on: T-47D breast
TK-10 renal = tested on: TK-10 renal
U251 CNS = tested on: U251 CNS
UACC-257 melanoma = tested on: UACC-257 melanoma
UACC-62 melanoma = tested on: UACC-62 melanoma
UO-31 renal = tested on: UO-31 renal
BT-549 breast = tested on: BT-549 breast
HOP-92 NSCLC = tested on: HOP-92 NSCLC
LOX IMVI melanoma = tested on: LOX IMVI melanoma
NCI-H522 lung = tested on: NCI-H522 lung
OVCAR-3 ovarian = tested on: OVCAR-3 ovarian
RXF 393 renal = tested on: RXF 393 renal

In the case of `O=C(CC(C(=O)c1ccc(F)cc1)c1ccsc1)c1cccs1` (stereo not given), the TGI (786-0 renal) is reported as > 100 µM, the TGI (A498 renal) is reported as > 100 µM and the TGI (A549 NSCLC) is reported as > 100 µM. For the same molecule, the TGI (ACHN renal) was > 100 µM, the TGI (CAKI-1 renal) was > 100 µM and the TGI (CCRF-CEM leukemia) was > 100 µM. For the same molecule, the TGI (COLO 205 colon) was > 100 µM, the TGI (DU-145 prostate) was > 100 µM and the TGI (EKVX NSCLC) was > 100 µM. For the same molecule, the TGI (HCC-2998 colon) was > 100 µM, the TGI (HCT-116 colon) was > 100 µM and the TGI (HCT-15 colon) was > 100 µM. For the same molecule, the TGI (HL-60(TB) leukemia) was > 100 µM, the TGI (HOP-62 NSCLC) was > 100 µM and the TGI (HS 578T breast) was > 100 µM. The TGI (HT29 colon) was > 100 µM, the TGI (IGROV1 ovarian) was > 100 µM and the TGI (K-562 leukemia) was > 100 µM. For the same molecule, the TGI (KM12 colon) was > 100 µM, the TGI (M14 melanoma) was > 100 µM and the TGI (MALME-3M melanoma) was > 100 µM. For the same molecule, the TGI (MCF7 breast) was > 100 µM, the TGI (MDA-MB-231 breast) was > 100 µM and the TGI (MDA-MB-435) was > 100 µM. The TGI (MDA-N) was > 100 µM, the TGI (MOLT-4 leukemia) was 89.7 µM and the TGI (NCI-H226 lung) was > 100 µM. For the same molecule, the TGI (NCI-H23 lung) was > 100 µM, the TGI (NCI-H460 lung) was > 100 µM and the TGI (NCI/ADR-RES ovarian) was > 100 µM. The TGI (OVCAR-4 ovarian) was > 100 µM, the TGI (OVCAR-5 ovarian) was > 100 µM and the TGI (OVCAR-8 ovarian) was > 100 µM. For the same molecule, the TGI (PC-3 prostate) was > 100 µM, the TGI (RPMI-8226 leukemia) was > 100 µM and the TGI (SF-268 CNS) was > 100 µM. For the same molecule, the TGI (SF-295 CNS) was > 100 µM, the TGI (SF-539 CNS) was > 100 µM and the TGI (SK-MEL-2 melanoma) was > 100 µM. The TGI (SK-MEL-28 melanoma) was > 100 µM, the TGI (SK-MEL-5 melanoma) was > 100 µM and the TGI (SK-OV-3 ovarian) was > 100 µM. The TGI (SN12C renal) was > 100 µM, the TGI (SNB-19 CNS) was > 100 µM and the TGI (SNB-75 CNS) was > 100 µM. The TGI (SR leukemia) was > 100 µM, the TGI (SW-620 colon) was > 100 µM and the TGI (T-47D breast) was > 100 µM. For the same molecule, the TGI (TK-10 renal) was > 100 µM, the TGI (U251 CNS) was > 100 µM and the TGI (UACC-257 melanoma) was > 100 µM. The TGI (UACC-62 melanoma) was > 100 µM and the TGI (UO-31 renal) was > 100 µM.
In the case of `COc1ccc2c(c1)OCC1Cc3cc4c(cc3OC21)OCO4` (stereo not given), the TGI (786-0 renal) is reported as > 100 µM, the TGI (A498 renal) is reported as > 100 µM and the TGI (A549 NSCLC) is reported as > 100 µM. For the same molecule, the TGI (ACHN renal) was > 100 µM, the TGI (BT-549 breast) was > 100 µM and the TGI (CAKI-1 renal) was > 100 µM. The TGI (CCRF-CEM leukemia) was > 100 µM, the TGI (COLO 205 colon) was > 100 µM and the TGI (DU-145 prostate) was > 100 µM. The TGI (EKVX NSCLC) was > 100 µM, the TGI (HCC-2998 colon) was > 100 µM and the TGI (HCT-116 colon) was > 100 µM. For the same molecule, the TGI (HCT-15 colon) was > 100 µM, the TGI (HOP-62 NSCLC) was > 100 µM and the TGI (HOP-92 NSCLC) was > 100 µM. The TGI (HT29 colon) was > 100 µM, the TGI (IGROV1 ovarian) was > 100 µM and the TGI (K-562 leukemia) was > 100 µM. The TGI (KM12 colon) was > 100 µM, the TGI (LOX IMVI melanoma) was 52.4 µM and the TGI (M14 melanoma) was > 100 µM. The TGI (MALME-3M melanoma) was > 100 µM, the TGI (MCF7 breast) was > 100 µM and the TGI (MDA-MB-231 breast) was > 100 µM. For the same molecule, the TGI (MDA-MB-435) was 34.7 µM, the TGI (MDA-N) was 13.8 µM and the TGI (MOLT-4 leukemia) was > 100 µM. For the same molecule, the TGI (NCI-H226 lung) was > 100 µM, the TGI (NCI-H23 lung) was > 100 µM and the TGI (NCI-H522 lung) was > 100 µM. For the same molecule, the TGI (NCI/ADR-RES ovarian) was > 100 µM, the TGI (OVCAR-3 ovarian) was > 100 µM and the TGI (OVCAR-5 ovarian) was > 100 µM. The TGI (OVCAR-8 ovarian) was > 100 µM, the TGI (PC-3 prostate) was > 100 µM and the TGI (RPMI-8226 leukemia) was > 100 µM. The TGI (SF-268 CNS) was > 100 µM, the TGI (SF-295 CNS) was > 100 µM and the TGI (SF-539 CNS) was > 100 µM. For the same molecule, the TGI (SK-MEL-2 melanoma) was 86.9 µM, the TGI (SK-MEL-5 melanoma) was 57.2 µM and the TGI (SK-OV-3 ovarian) was > 100 µM. The TGI (SN12C renal) was > 100 µM, the TGI (SNB-19 CNS) was > 100 µM and the TGI (SR leukemia) was > 100 µM. For the same molecule, the TGI (SW-620 colon) was > 100 µM, the TGI (T-47D breast) was > 100 µM and the TGI (TK-10 renal) was 81.1 µM. For the same molecule, the TGI (U251 CNS) was > 100 µM, the TGI (UACC-257 melanoma) was > 100 µM and the TGI (UACC-62 melanoma) was > 100 µM. For the same molecule, the TGI (UO-31 renal) was > 100 µM.
With `S=C1C(=Nc2ccccc2)N(C2CCCCC2)C(=NC2CCCCC2)N1c1ccccc1` the TGI (786-0 renal) was > 100 µM, the TGI (A498 renal) was > 100 µM and the TGI (A549 NSCLC) was > 100 µM. The TGI (ACHN renal) was > 100 µM, the TGI (CAKI-1 renal) was > 100 µM and the TGI (CCRF-CEM leukemia) was > 100 µM. The TGI (COLO 205 colon) was > 100 µM, the TGI (DU-145 prostate) was > 100 µM and the TGI (EKVX NSCLC) was > 100 µM. The TGI (HCC-2998 colon) was > 100 µM, the TGI (HCT-116 colon) was > 100 µM and the TGI (HCT-15 colon) was > 100 µM. For the same molecule, the TGI (HL-60(TB) leukemia) was > 100 µM, the TGI (HOP-62 NSCLC) was > 100 µM and the TGI (HOP-92 NSCLC) was > 100 µM. The TGI (HS 578T breast) was > 100 µM, the TGI (HT29 colon) was > 100 µM and the TGI (IGROV1 ovarian) was > 100 µM. For the same molecule, the TGI (K-562 leukemia) was > 100 µM, the TGI (KM12 colon) was > 100 µM and the TGI (LOX IMVI melanoma) was > 100 µM. The TGI (MALME-3M melanoma) was > 100 µM, the TGI (MDA-MB-231 breast) was > 100 µM and the TGI (MDA-MB-435) was > 100 µM. The TGI (MDA-N) was > 100 µM, the TGI (MOLT-4 leukemia) was > 100 µM and the TGI (NCI-H226 lung) was > 100 µM. The TGI (NCI-H23 lung) was > 100 µM, the TGI (NCI-H460 lung) was > 100 µM and the TGI (NCI-H522 lung) was 71.8 µM. The TGI (NCI/ADR-RES ovarian) was > 100 µM, the TGI (OVCAR-4 ovarian) was > 100 µM and the TGI (OVCAR-5 ovarian) was > 100 µM. The TGI (OVCAR-8 ovarian) was > 100 µM, the TGI (PC-3 prostate) was > 100 µM and the TGI (RPMI-8226 leukemia) was > 100 µM. The TGI (RXF 393 renal) was > 100 µM, the TGI (SF-268 CNS) was > 100 µM and the TGI (SF-295 CNS) was > 100 µM. For the same molecule, the TGI (SF-539 CNS) was > 100 µM, the TGI (SK-MEL-2 melanoma) was > 100 µM and the TGI (SK-MEL-28 melanoma) was > 100 µM. The TGI (SK-MEL-5 melanoma) was > 100 µM, the TGI (SK-OV-3 ovarian) was > 100 µM and the TGI (SN12C renal) was > 100 µM. The TGI (SNB-19 CNS) was > 100 µM, the TGI (SNB-75 CNS) was > 100 µM and the TGI (SR leukemia) was > 100 µM. The TGI (SW-620 colon) was > 100 µM, the TGI (T-47D breast) was > 100 µM and the TGI (TK-10 renal) was > 100 µM. The TGI (U251 CNS) was > 100 µM, the TGI (UACC-257 melanoma) was > 100 µM and the TGI (UACC-62 melanoma) was > 100 µM. The TGI (UO-31 renal) was > 100 µM.
